# According to patent US10377770B2 (Novartis AG, priority 2015, dated 2019):
# Biological target: C-Raf FL (full length CRAF with Y340E and Y341E activating mutations, co-expressed with h14-3-3 zeta) (Homo sapiens (Human), UniProt P04049, Y340E/Y341E)
# Assay: In vitro Raf activity determination, AlphaScreen p-MEK readout, c-Raf (C-Raf FL)
# Type: biochemical
# Conditions: c-Raf approximately 4 nM, ATP 1 μM, pre-incubation 60 minutes, reaction 1 hour
# Method in brief: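 Full-length C-Raf (~4 nM) pre-incubated 60 min at room temperature with compound and kinase-dead biotinylated MEK1 (~10 nM) in Tris pH 7.5, 15 mM MgCl2, BSA, DTT. Reaction started with 1 μM ATP and run 1 h at room temperature. Phospho-MEK detected by AlphaScreen with anti-p-MEK antibody.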
# Sequence of C-Raf FL (full length CRAF with Y340E and Y341E activating mutations, co-expressed with h14-3-3 zeta) (P04049 whole entry Y340E/Y341E): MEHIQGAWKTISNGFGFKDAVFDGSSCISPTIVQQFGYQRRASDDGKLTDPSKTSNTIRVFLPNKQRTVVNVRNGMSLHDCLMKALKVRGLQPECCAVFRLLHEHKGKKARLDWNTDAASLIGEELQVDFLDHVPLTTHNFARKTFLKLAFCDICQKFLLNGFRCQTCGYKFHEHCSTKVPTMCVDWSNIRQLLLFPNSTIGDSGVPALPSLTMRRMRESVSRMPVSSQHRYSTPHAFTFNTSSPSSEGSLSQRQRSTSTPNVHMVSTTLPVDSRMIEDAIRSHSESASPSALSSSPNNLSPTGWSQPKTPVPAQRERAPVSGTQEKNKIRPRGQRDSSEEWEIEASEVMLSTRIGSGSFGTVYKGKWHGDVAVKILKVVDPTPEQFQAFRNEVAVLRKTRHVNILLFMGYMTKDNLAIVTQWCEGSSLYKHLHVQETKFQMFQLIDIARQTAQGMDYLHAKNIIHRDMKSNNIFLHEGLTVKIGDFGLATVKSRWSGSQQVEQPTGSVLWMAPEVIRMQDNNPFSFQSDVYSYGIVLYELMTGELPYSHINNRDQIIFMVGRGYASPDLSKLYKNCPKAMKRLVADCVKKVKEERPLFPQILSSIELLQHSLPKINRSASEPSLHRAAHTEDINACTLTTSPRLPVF
# Sequence of C-Raf FL (full length CRAF with Y340E and Y341E activating mutations, co-expressed with h14-3-3 zeta) (P63104 whole entry partner): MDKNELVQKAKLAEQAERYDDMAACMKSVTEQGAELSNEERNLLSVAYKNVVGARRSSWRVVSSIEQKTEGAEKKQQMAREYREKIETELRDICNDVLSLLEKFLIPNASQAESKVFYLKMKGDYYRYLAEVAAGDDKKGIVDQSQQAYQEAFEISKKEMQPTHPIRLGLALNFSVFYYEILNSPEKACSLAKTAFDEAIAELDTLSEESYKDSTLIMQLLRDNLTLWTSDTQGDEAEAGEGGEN
row,Compound,IC50 [nM]
1,"Cc1ccc(NC(=O)c2ccnc(C(F)(F)F)c2)cc1-c1cnc2c(c1)N1CCOC[C@H]1C[C@@]2(O)C(F)(F)F (racemic) [Example 170, rac-cis-N-(3-(6-hydroxy-6-(trifluoromethyl)-1,2,4,4a,5,6-hexahydro-[1,4]oxazino[4,3-a][1,5]naphthyridin-9-yl)-4-methylphenyl)-2-(trifluoromethyl)isonicotinamide]",0.025
2,"Cc1ccc(NC(=O)c2ccnc(C(F)(F)F)c2)cc1-c1cnc2c(c1)N1CCOCC1CC2N (racemic) [Example 171, rac-N-(3-(6-amino-1,2,4,4a,5,6-hexahydro-[1,4]oxazino[4,3-a][1,5]naphthyridin-9-yl)-4-methylphenyl)-2-(trifluoromethyl)isonicotinamide]",0.019
3,"CCC(=O)NC1CC2COCCN2c2cc(-c3cc(NC(=O)c4ccnc(C(F)(F)F)c4)ccc3C)cnc21 (racemic) [Example 172, rac-N-(4-methyl-3-(6-propionamido-1,2,4,4a,5,6-hexahydro-[1,4]oxazino[4,3-a][1,5]naphthyridin-9-yl)phenyl)-2-(trifluoromethyl)isonicotinamide]",0.034
4,"CNC(=O)C1Cc2ncc(-c3cc(NC(=O)c4ccnc(C(C)(F)F)c4)ccc3C)cc2N2CCOCC12 (racemic) [Example 173, rac-9-(5-(2-(1,1-difluoroethyl)isonicotinamido)-2-methylphenyl)-N-methyl-1,2,4,4a,5,6-hexahydro-[1,4]oxazino[4,3-a][1,5]naphthyridine-5-carboxamide]",0.012
5,"CCN1C(=O)Cc2nncn2-c2cc(-c3cc(NC(=O)c4ccnc(C(C)(F)F)c4)ccc3C)cnc21 (racemic) [Example 234, 2-(1,1-difluoroethyl)-N-(3-(6-ethyl-5-oxo-5,6-dihydro-4H-pyrido[2,3-b][1,2,4]triazolo[4,3-d][1,4]diazepin-9-yl)-4-methylphenyl)isonicotinamide]",1.3
6,CCN1C(=O)[C@H]2[C@@H]3COC[C@@H]3[C@H]2c2cc(-c3cc(NC(=O)c4ccnc(C(F)(F)F)c4)ccc3C)cnc21 (racemic) [Example 362],0.2
7,"Cc1ccc(NC(=O)c2ccnc(C(F)(F)F)c2)cc1-c1ccc2c(c1)N1CCOCC1C(CS(C)(=O)=O)C2 (racemic) [Example 363, (rac)-N-(4-methyl-3-(5-((methylsulfonyl)methyl)-1,2,4,4a,5,6-hexahydro-[1,4]oxazino[4,3-a]quinolin-9-yl)phenyl)-2-(trifluoromethyl)isonicotinamide]",0.1
8,"Cc1ncc(NC(=O)c2cccc(C(F)(F)F)c2)cc1-c1ccc2c(c1)N1CCOCC1C(CS(C)(=O)=O)C2 (racemic) [Example 364, (rac)-N-(6-methyl-5-(5-((methylsulfonyl)methyl)-1,2,4,4a,5,6-hexahydro-[1,4]oxazino[4,3-a]quinolin-9-yl)pyridin-3-yl)-3-(trifluoromethyl)benzamide]",0.8
9,"Cc1ccc(NC(=O)c2ccnc(C(C)(C)F)c2)cc1-c1ccc2c(c1)N1CCOCC1C(CS(C)(=O)=O)C2 (racemic) [Example 365, (rac)-2-(2-fluoropropan-2-yl)-N-(4-methyl-3-(5-((methylsulfonyl)methyl)-1,2,4,4a,5,6-hexahydro-[1,4]oxazino[4,3-a]quinolin-9-yl)phenyl)isonicotinamide]",0.2
10,Cc1ccc(NC(=O)c2ccnc(C(C)(F)F)c2)cc1-c1ccc2c(c1)N1CCOC[C@]1(C)C[C@@H]2O (relative stereo) [Example 26],0.014
11,"Cc1ccc(NC(=O)c2ccnc(C(C)(F)F)c2)cc1-c1cnc2c(c1)N1CCOC[C@H]1[C@H](F)[C@H]2O (relative stereo) [Example 140, rac-2-(1,1-difluoroethyl)-N-(3-((4aS*,5S*,6S*)-5-fluoro-6-hydroxy-1,2,4,4a,5,6-hexahydro-[1,4]oxazino[4,3-a][1,5]naphthyridin-9-yl)-4-methylphenyl)isonicotinamide]",0.0085
12,"CCN1C(=O)[C@@H]2COCC[C@@]2(C)c2cc(-c3cc(NC(=O)c4ccnc(C(F)(F)F)c4)ccc3C)cnc21 (relative stereo) [Example 341, N-(3-((4a,10b-trans)-6-ethyl-10b-methyl-5-oxo-2,4,4a,5,6,10b-hexahydro-1H-pyrano[3,4-c][1,8]naphthyridin-9-yl)-4-methylphenyl)-2-(trifluoromethyl)isonicotinamide]",0.6
13,"CCN1C(=O)[C@@H]2COCC[C@@]2(C)c2cc(-c3cc(NC(=O)c4ccnc(C(F)(F)F)c4)ccc3C)cnc21 (relative stereo) [Example 342, N-(3-((4a,10b-trans)-6-ethyl-10b-methyl-5-oxo-2,4,4a,5,6,10b-hexahydro-1H-pyrano[3,4-c][1,8]naphthyridin-9-yl)-4-methylphenyl)-2-(trifluoromethyl)isonicotinamide]",0.1
14,"Cc1ccc(NC(=O)c2ccnc(C(C)(F)F)c2)cc1-c1cnc2c(c1)[C@@]1(C)CCOCC[C@@H]1C(=O)N2CCO (relative stereo) [Example 351, 2-(1,1-difluoroethyl)-N-((5a,11b-trans)-3-(7-(2-hydroxyethyl)-11b-methyl-6-oxo-1,2,4,5,5a,6,7,11b-octahydrooxepino[4,5-c][1,8]naphthyridin-10-yl)-4-methylphenyl) isonicotinamide]",1.1
15,"Cc1ccc(NC(=O)c2ccnc(C(C)(F)F)c2)cc1-c1cnc2c(c1)[C@@]1(C)CCOCC[C@@H]1C(=O)N2CCO (relative stereo) [Example 352, 2-(1,1-difluoroethyl)-N-((5a,11b-trans)-3-(7-(2-hydroxyethyl)-11b-methyl-6-oxo-1,2,4,5,5a,6,7,11b-octahydrooxepino[4,5-c][1,8]naphthyridin-10-yl)-4-methylphenyl)isonicotinamide]",0.1
16,"Cc1ccc(NC(=O)c2ccnc(C(C)(F)F)c2)cc1-c1ccc2c(c1)N1CCOC[C@@H]1C[C@@H]2O (single isomer, unassigned) [Example 14]",0.034
17,"Cc1ccc(NC(=O)c2ccnc(C(C)(F)F)c2)cc1-c1ccc2c(c1)N1CCOC[C@H]1C[C@@H]2O (single isomer, unassigned) [Example 19]",0.019
18,"Cc1ccc(NC(=O)c2ccnc(C(C)(F)F)c2)cc1-c1ccc2c(c1)N1CCOC[C@@H]1C[C@H]2O (single isomer, unassigned) [Example 20]",0.025
19,"Cc1ccc(NC(=O)c2ccnc(C(C)(F)F)c2)cc1-c1ccc2c(c1)N1CCOC[C@H]1C(CO)(CO)C2 (single isomer, unassigned) [Example 52]",0.16
20,"Cc1ccc(NC(=O)c2ccnc(C(C)(F)F)c2)cc1-c1ccc2c(c1)N1CCOCC1C(F)(CO)C2 (single isomer, unassigned) [Example 82, 2-(1,1-difluoroethyl)-N-(3-(5-fluoro-5-(hydroxymethyl)-1,2,4,4a,5,6-hexahydro-[1,4]oxazino[4,3-a]quinolin-9-yl)-4-methylphenyl)isonicotinamide]",0.17
21,"Cc1ccc(NC(=O)c2ccnc(C(C)(F)F)c2)cc1-c1ccc2c(c1)N1CCOCC1C(F)(CO)C2 (single isomer, unassigned) [Example 83, 2-(1,1-difluoroethyl)-N-(3-(5-fluoro-5-(hydroxymethyl)-1,2,4,4a,5,6-hexahydro-[1,4]oxazino[4,3-a]quinolin-9-yl)-4-methylphenyl)isonicotinamide]",0.85
22,"Cc1ccc(NC(=O)c2ccnc(C(F)(F)F)c2)cc1-c1cnc2c(c1)N1CCOCC1C(C)(C)C2O (single isomer, unassigned) [Example 334, N-(3-(6-hydroxy-5,5-dimethyl-1,2,4,4a,5,6-hexahydro-[1,4]oxazino[4,3-a][1,5]naphthyridin-9-yl)-4-methylphenyl)-2-(trifluoromethyl)isonicotinamide]",0.4
23,"Cc1ccc(NC(=O)c2ccnc(C(F)(F)F)c2F)cc1-c1cnc2c(c1)C1(C)CCOCCC1C(=O)N2CCO (single isomer, unassigned) [Example 354, 3-fluoro-N-(3-((5a,11b-trans)-7-(2-hydroxyethyl)-11b-methyl-6-oxo-1,2,4,5,5a,6,7,11b-octahydrooxepino[4,5-c][1,8]naphthyridin-10-yl)-4-methylphenyl)-2-(trifluoromethyl)isonicotinamide]",0.3
24,"Cc1ccc(NC(=O)c2ccnc(C(F)(F)F)c2)cc1-c1cnc2c(c1)C1(C)CCOCCC1C(=O)N2CCO (single isomer, unassigned) [Example 355, N-(3-((5a,11b-trans)-7-(2-hydroxyethyl)-11b-methyl-6-oxo-1,2,4,5,5a,6,7,11b-octahydrooxepino[4,5-c][1,8]naphthyridin-10-yl)-4-methylphenyl)-2-(trifluoromethyl)isonicotinamide]",1.2
25,"Cc1ccc(NC(=O)c2ccnc(C(F)(F)F)c2)cc1-c1cnc2c(c1)C1(C)CCOCCC1C(=O)N2CCO (single isomer, unassigned) [Example 356, N-(3-((5a,11b-trans)-7-(2-hydroxyethyl)-11b-methyl-6-oxo-1,2,4,5,5a,6,7,11b-octahydrooxepino[4,5-c][1,8]naphthyridin-10-yl)-4-methylphenyl)-2-(trifluoromethyl)isonicotinamide]",0.1
26,"Cc1ccc(NC(=O)c2cncc(C(F)(F)F)c2)cc1-c1cnc2c(c1)C1(C)CCOCCC1C(=O)N2CCO (single isomer, unassigned) [Example 358, N-(3-((5a,11b-trans)-7-(2-hydroxyethyl)-11b-methyl-6-oxo-1,2,4,5,5a,6,7,11b-octahydrooxepino[4,5-c][1,8]naphthyridin-10-yl)-4-methylphenyl)-5-(trifluoromethyl)nicotinamide]",0.1
27,"Cc1ncc(NC(=O)c2cccc(C(F)(F)F)c2)cc1-c1cnc2c(c1)C1(C)CCOCCC1C(=O)N2CCO (single isomer, unassigned) [Example 359, N-(5-((5a,11b-trans)-7-(2-hydroxyethyl)-11b-methyl-6-oxo-1,2,4,5,5 a,6,7,11b-octahydrooxepino[4,5-c][1,8]naphthyridin-10-yl)-6-methylpyridin-3-yl)-3-(trifluoromethyl)benzamide]",0.3
